In PubChem BioAssay (NCI):
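Grown in 96-well plates, cells were treated for 48 hours with each compound at five concentrations. Insufficient inhibition: endpoint recorded as highest concentration tested. GI50 is the concentration that inhibits growth by half. The concentration for full growth arrest is given as TGI.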

How the values were obtained:
Test in all cases: NCI-60 cell line screen, 48 h
CAKI-1 renal = tested on: CAKI-1 renal
HCT-116 colon = tested on: HCT-116 colon
K-562 leukemia = tested on: K-562 leukemia
NCI-H226 lung = tested on: NCI-H226 lung
NCI-H522 lung = tested on: NCI-H522 lung
OVCAR-3 ovarian = tested on: OVCAR-3 ovarian
OVCAR-4 ovarian = tested on: OVCAR-4 ovarian
SK-MEL-28 melanoma = tested on: SK-MEL-28 melanoma
SNB-19 CNS = tested on: SNB-19 CNS
UACC-257 melanoma = tested on: UACC-257 melanoma

Row | Structure (SMILES) | GI50 (CAKI-1 renal) [µM] | TGI (CAKI-1 renal) [µM] | GI50 (HCT-116 colon) [µM] | TGI (HCT-116 colon) [µM] | GI50 (K-562 leukemia) [µM] | TGI (K-562 leukemia) [µM] | GI50 (NCI-H226 lung) [µM] | TGI (NCI-H226 lung) [µM] | GI50 (NCI-H522 lung) [µM] | TGI (NCI-H522 lung) [µM] | GI50 (OVCAR-3 ovarian) [µM] | TGI (OVCAR-3 ovarian) [µM] | GI50 (OVCAR-4 ovarian) [µM] | TGI (OVCAR-4 ovarian) [µM] | GI50 (SK-MEL-28 melanoma) [µM] | TGI (SK-MEL-28 melanoma) [µM] | GI50 (SNB-19 CNS) [µM] | TGI (SNB-19 CNS) [µM] | GI50 (UACC-257 melanoma) [µM] | TGI (UACC-257 melanoma) [µM]
1 | O=S(=O)(CCCl)c1ccc(Cl)cc1 | 2.9 | 13.2 | 2.74 | 11.9 | 3.98 | > 100 | 16 | > 100 | 1.41 | 3.01 | 2.84 | 10.6 | 2.22 | 10.8 | 2.38 | 10.8 | 13.2 | 41.1 | 2.98 | 11.6
2 | Cn1c2ccccc2c(=O)c2c(O)cc3c(c21)C=CC1(CCCCC1)O3 | – | > 10 | – | > 10 | – | > 10 | – | > 10 | – | > 10 | – | > 10 | – | > 10 | – | > 10 | – | > 10 | – | > 10
3 | Cc1cc(I)cc(CN(C)CCCN2CCCC2)c1O | 16.2 | 32.2 | 15.5 | 55.6 | 14.5 | 33.2 | 30.7 | > 100 | 20.7 | 45.9 | 23.2 | > 88.2 | 34 | > 90.1 | 15.3 | 29.9 | 27.6 | > 80.4 | 22.7 | > 57
4 | CCOC(=O)c1cc2c3c(c(O)c(OC)c2s1)N(C(=O)c1cc2c4c(c(O)c(OC)c2s1)N(C(C)=O)CC4)CC3 | – | > 100 | – | > 100 | – | > 100 | – | > 100 | – | > 100 | – | > 100 | – | > 100 | – | > 100 | – | > 100 | – | > 100
5 | CCOC(=O)/C(C#N)=C\C=C(/Cl)c1ccc(Cl)cc1 | 5.74 | 22.5 | 11.2 | 24.3 | 12.9 | > 64.3 | 27.4 | 83.2 | 14 | 39.9 | 7.76 | 28.4 | 27.8 | > 76.4 | 15.5 | 32.3 | 19.1 | 46.4 | 17.6 | 32.6
6 | C/C(=N/NC(=O)C[N+](C)(C)C)C(CN(C)C)C(=O)Nc1ccccc1 (stereo not given) | – | > 100 | – | > 100 | – | > 100 | – | > 100 | – | > 100 | – | > 100 | – | > 100 | – | > 100 | – | > 100 | – | > 100
7 | Cc1nc(C(N)=S)sc1C(=O)/C=C/c1c(O)ccc2ccccc12 | – | > 100 | – | > 100 | – | > 64.7 | – | > 100 | – | > 63 | – | > 84.3 | – | > 100 | – | > 100 | – | > 100 | – | > 100
8 | CC1(C)CC2C(=O)c3ccccc3NC2c2ccccc21 (stereo not given) | – | > 100 | – | > 100 | – | > 90.6 | – | > 100 | – | 4.49 | – | > 100 | – | > 100 | – | > 100 | – | > 100 | – | > 100
